One experiment deals with T1, ACBD4 (Homo sapiens, UniProt Q8NC06).
T1 construct: recombinant MBP-His tagged, E. coli, amylose resin purified, tag kept
T1 sequence (Q8NC06 1-305 isoform Q8NC06-2): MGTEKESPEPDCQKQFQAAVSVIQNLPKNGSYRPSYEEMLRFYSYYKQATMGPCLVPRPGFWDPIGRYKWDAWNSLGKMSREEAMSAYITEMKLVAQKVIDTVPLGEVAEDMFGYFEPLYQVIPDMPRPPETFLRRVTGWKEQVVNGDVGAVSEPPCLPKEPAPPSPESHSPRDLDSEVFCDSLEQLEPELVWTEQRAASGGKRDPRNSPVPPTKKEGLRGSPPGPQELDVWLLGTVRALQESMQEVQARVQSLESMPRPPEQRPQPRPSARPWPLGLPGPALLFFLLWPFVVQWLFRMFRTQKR
In words: competition with […]C18:1-CoA, pull-down on Ni-NTA resin. The format is binding. The note with it: 2 uM protein, 5 uM [14C]C18:1-CoA, 0.2-20 uM competitor.

The next experiment concerns the target T2, ACBD5 (Homo sapiens, UniProt Q5T8D3).
T2 construct: recombinant MBP-His tagged, E. coli, amylose resin purified, tag kept
T2 sequence (Q5T8D3 1-490 isoform Q5T8D3-2): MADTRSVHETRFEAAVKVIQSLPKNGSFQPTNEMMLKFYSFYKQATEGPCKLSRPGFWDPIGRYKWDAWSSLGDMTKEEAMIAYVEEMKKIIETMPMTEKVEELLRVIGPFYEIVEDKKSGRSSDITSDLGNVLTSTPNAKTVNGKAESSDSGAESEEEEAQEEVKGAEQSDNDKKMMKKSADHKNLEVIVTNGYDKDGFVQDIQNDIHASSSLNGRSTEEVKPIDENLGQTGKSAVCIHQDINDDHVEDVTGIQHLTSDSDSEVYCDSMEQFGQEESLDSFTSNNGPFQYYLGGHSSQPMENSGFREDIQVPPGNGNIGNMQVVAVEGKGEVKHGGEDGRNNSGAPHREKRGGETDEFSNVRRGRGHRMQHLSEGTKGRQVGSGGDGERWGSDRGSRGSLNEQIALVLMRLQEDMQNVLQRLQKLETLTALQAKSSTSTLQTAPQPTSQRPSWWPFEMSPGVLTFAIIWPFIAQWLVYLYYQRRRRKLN
The experiment is described as above. Type of experiment: binding. Conditions: 2 uM protein, 5 uM [14C]C18:1-CoA, 0.2-20 uM competitor.

Molecules are shown by their SMILES.

As for `CCCCCCCCCCCCCCCCCCCCCCCC(=O)SCCNC(=O)CCNC(=O)[C@H](O)C(C)(C)COP(=O)(O)OP(=O)(O)OC[C@H]1O[C@@H](n2cnc3c(N)ncnc32)[C@H](O)[C@@H]1OP(=O)(O)O` [C24-CoA], the “competition with [14C]C18:1-CoA, pull-down on Ni-NTA resin” value on ACBD4 was “ACBD4, which displayed a similar preference for long and very-long acyl-CoAs”; at ACBD5, “a stronger preference for the very-long-chain C24-CoA compared to the two long-chain acyl-CoAs”.

Values taken from PMC10410513, “Differential roles for ACBD4 and ACBD5 in peroxisome–ER interactions and lipid metabolism” (The Journal of Biological Chemistry, 2023).
